The source of these data is patent US20070282004A1, “Use of a Cyclopentenone Prostaglandin for Delaying for the Onset and/or Preventing the Continuation of Labour” (Imperial College Innovations Limited, priority 2003, published 2007).

One assay deals with phospho-p65. Briefly: Mouse model of preterm labour (LPS): placental phospho-p65 by western immunoblot. Conditions: gestation day 16 mice, 6 hours after intrauterine 250 μg LPS + 15d-PGJ2, p<0.05. The assay is classed as in vivo. On the procedure:
Relative concentrations of phospho-p65 in placental homogenates collected from gestation day 16 mice 6 hours after intrauterine injection of 250 μg LPS+vehicle or 250 μg LPS+[…] 15d-PGJ2. * denotes statistically significant difference (t-test (p<0.05)).
(§1) Surgery was performed on timed pregnant MF1 mice at day 16 of gestation. After deep maternal anaesthesia was attained, a minilaparotomy was performed in the lower abdomen. The uterine horns were exposed through the incision and preterm labour was induced by the intrauterine injection of 250 μg lipopolysaccharide (LPS, Sigma) into the gravid horn. This was immediately followed by injection of 4 μg […] (Cayman), or an equal volume of vehicle (methyl acetate), at the same site. The uterus was then returned to the abdomen and the fascia and skin were closed with continuous vicryl sutures.
(§2) Mice were sacrificed 6 hours after injection of LPS±15d-PGJ2. […]
(§3) Homogenate levels of Interlekin-1β (IL-1β) and tumour necrosis factor α (TNFα) were determined in placental lysates by ELISA (R and D systems) according to manufacturers instructions. Total protein concentrations were determined for each homogenate and IL-1β and TNFα levels were expressed as pg/mg total protein. […] Phosphorylated p65 (phospho-p65) was detected by western immunoblotting using a specific antibody (Santa Cruz) and quantified by densitometric analysis.

A further assay addresses T1, NF-κB (Homo sapiens, UniProt P19838+Q04206).
T1 construct: nuclear protein extracts from myometrial cells; endogenous in cells; host or cells: primary human myometrial cells (term, passage 1-4)
Briefly: EMSA of NF-κB DNA binding in nuclear extracts of treated myometrial cells. The assay is classed as cell-based. The settings on record: for IL-1β-induced NF-κB DNA binding (EMSA): myometrial cells, treated 2 h, then IL-1β 15 min. On the procedure: Myometrial tissue was collected at term from the upper margin of uterine incision at the time of lower segment caesarean section either prior to the onset of labour (L−) or […] (L+). L+ samples were collected by Dr Mark Johnson and Dr S Soorrana at Chelsea & Westminster Hospital. Myometrial tissue was dissected, rinsed in PBS, and digested in serum-free DMEM containing 15 mg/ml collagenase 1A (Sigma), 15 mg/ml collagenase X, and 50 mg/ml bovine serum albumin for 45 min at 37° C. The cell suspension was filtered through a cell strainer, centrifuged at 400 g for 5 min, and the pellet re-suspended and plated out in DMEM, 10% FCS (Helena BioScience), 1% L-glutainine, 1% penicillin-streptomycin. Cells were used between passage numbers 1-4.
Nuclear and cytosolic protein extracts were obtained from cultured amnion cells as described by Schreiber et al (1989). For nuclear/cytosolic fractionation, confluent cell monolayers were scraped and lysed using a buffer containing 10 mM HEPES, 10 mM KCl, 0.1 mM EDTA, 0.1 mM EGTA, 2 mM DTT, 1% (v/v) NP-40 and complete protease inhibitor tablets (CPIs, Roche), diluted to manufacturer's instructions. Cell lysates were incubated on ice for 10 min and NP-40 added to a final concentration of 1% (v/v). Lysates were vortexed for 10 secs and centrifuged for 30 secs at 4° C., 12000 g. The supernatants were retained as the cytosolic protein extracts. The pellets were resuspended in buffer containing 10 mM HEPES, 10 mM KCl, 0.1 mM EDTA, 0.1 mM EGTA, 2 mM DTT, 400 mM NaCl, 1% NP-40 (v/v) and CPIs. Samples were shaken vigorously for 15 min in an ice bath. The nuclear protein extracts were obtained in the supernatant following a 5 min centrifugation at 4° C., 12000 g.
Sense and antisense strands (175 nmole/ml each) were incubated in annealing buffer (10 mM Tris-HCl pH7.5, 100 mM NaCl, 1 mM EDTA) for 10 min at 65° C., and allowed to cool at room temperature for 2 h. 3.5 pmole double-stranded oligonucleotides were end-labelled with 0.37 MBq ^32P(γATP) by incubating for 30 min at 37° C. with T4 polynucleotide kinase. Labelled oligonucleotides were recovered by centrifugation at 3000 rpm for 2 min through MicroSpin G-25 or G-50 sephadex columns (Amersham Biosciences).
3-5 μg protein extracts were incubated on ice for 1 h with non-radiolabelled non-specific oligonucleotide (poly(dI-dC) or Oct-1) in a binding buffer (20% (v/V) glycerol, 5 mM MgCl2, 2 mM EDTA, 50 mM Tris-HCl pH7.5, 250 mM NaCl, 2 mM DTT), followed by a 45 min incubation with 0.035 pmole ^32P(γ(ATP)-end labelled oligonucleotide probes:
Oct-1 or SP-1 consensus sequences were used as a controls for a NF-κB-specific effect. The resulting protein/DNA complexes were separated in a 4% acrylamide gel, the gel dried under vacuum at 80° C. and exposed to X-ray film. For supershift analysis, samples were incubated with 2 μg antibodies for 30 min on ice prior to incubation with oligonucleotides. Non-radio-labelled oligonucleotides were used at 100-fold molar excess for specific and non-specific competition for DNA binding. Reagents for EMSA were obtained from Promega Life Sciences, Delta House, Chilworth Research Centre, Southampton SO16 7NS, United Kingdom.
(In general: Mobility shift assays separate free from complexed probe on a gel.)

For a further assay, the system named is IL-1β. The assay is described as follows: Mouse model of preterm labour (LPS): placental IL-1β by ELISA. Conditions: gestation day 16 mice, 6 hours after intrauterine 250 μg LPS + 4 μg 15d-PGJ2, p<0.05. The assay is classed as in vivo. The method, then: Concentrations of IL-1β in placental homogenates collected from gestation day 16 mice 6 hours after intrauterine injection of 250 μg LPS+vehicle or 250 μg LPS+4 μg 15d-PGJ2. * denotes statistically significant difference (t-test (p<0.05)).
as §1, §2, §3
(In general: In an ELISA, binding on a coated surface is turned into a signal by an enzyme label.)

A further assay deals with PPARα. Conditions: Forman et al., 1995; cited from earlier work.

T1 sequence (Q04206 whole entry): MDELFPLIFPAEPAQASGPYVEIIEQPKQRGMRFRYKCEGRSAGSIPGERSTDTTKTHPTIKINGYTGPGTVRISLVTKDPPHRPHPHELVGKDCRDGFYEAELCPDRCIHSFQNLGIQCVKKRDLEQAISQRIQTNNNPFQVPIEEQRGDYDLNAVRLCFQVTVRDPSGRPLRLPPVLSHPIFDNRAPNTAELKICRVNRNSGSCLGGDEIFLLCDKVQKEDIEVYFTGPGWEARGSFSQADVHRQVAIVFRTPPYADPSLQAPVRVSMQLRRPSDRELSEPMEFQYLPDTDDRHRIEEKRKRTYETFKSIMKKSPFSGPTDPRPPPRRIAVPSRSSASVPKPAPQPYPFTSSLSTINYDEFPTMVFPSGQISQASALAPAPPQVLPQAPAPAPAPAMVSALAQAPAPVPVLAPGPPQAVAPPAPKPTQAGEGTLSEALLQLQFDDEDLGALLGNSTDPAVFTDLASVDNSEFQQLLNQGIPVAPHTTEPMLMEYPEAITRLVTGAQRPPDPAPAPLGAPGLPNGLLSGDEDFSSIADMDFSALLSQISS
T1 sequence (P19838 1-433 limits assumed): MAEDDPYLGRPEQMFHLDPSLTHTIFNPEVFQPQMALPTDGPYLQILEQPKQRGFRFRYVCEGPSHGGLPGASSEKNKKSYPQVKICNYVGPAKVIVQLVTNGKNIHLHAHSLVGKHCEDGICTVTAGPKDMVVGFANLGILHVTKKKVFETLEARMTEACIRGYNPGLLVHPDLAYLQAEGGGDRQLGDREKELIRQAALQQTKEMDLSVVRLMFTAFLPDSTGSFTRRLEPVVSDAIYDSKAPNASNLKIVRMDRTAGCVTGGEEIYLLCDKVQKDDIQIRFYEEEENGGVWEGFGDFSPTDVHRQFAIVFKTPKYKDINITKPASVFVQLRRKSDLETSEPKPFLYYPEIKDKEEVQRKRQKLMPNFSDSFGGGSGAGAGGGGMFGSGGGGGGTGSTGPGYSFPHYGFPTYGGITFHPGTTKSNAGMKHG

As to `CCCCCC=CC=C1C(=O)C=C[C@@H]1CC=CCCCC(=O)O` [15d-PGJ2, 15-deoxy-Δ^12,14prostaglandin J2], in the assay with phospho-p65, the “phospho-p65 levels lower in proximal placentae vs LPS+vehicle” value is on record as “approximately 35%”. The “Protein binding to a consensus Oct-1 or Sp-1 probe (control)” value on NF-κB (myometrial and amnion cells) is recorded as “unaffected”. For the same compound, the figures for the “IL-1β-induced NF-κB DNA binding (EMSA)” value on NF-κB and on NF-κB (listed as 15dPGJ2) were “inhibited IL1-β-induced NF-κB DNA binding in a dose-dependent manner” and “inhibition”, respectively. Further, the “Levels of IL-1β lower in proximal placentae vs LPS+vehicle” value in the assay on IL-1β is recorded as “approximately 40%”. In the assay on PPARα, the “Transactivation of PPAR-α” value is on record as “more weakly than PPAR-γ”.
For the compound `CCCCC[C@H](O)/C=C/[C@H]1C=CC(=O)[C@@H]1CCCCCCC(=O)O` [PGA1, prostaglandin A1], the “IL-1β-induced NF-κB DNA binding (EMSA)” value at NF-κB is given as “inhibition”.
